# According to a melting point compilation (Tetko et al.; mined from patent text by program, amines drawn as free bases though some values may be those of a salt):
row,SMILES,melting point
1,O=C1NC[C@@H](C(=O)NCCO[N+](=O)[O-])O1,101 to 103 °C
2,O=C(CBr)NCCC(=O)ON1C(=O)CCC1=O,107 to 110 °C
3,C[C@@H](n1ncn(-c2ccc(-n3ccnn3)cc2)c1=O)[C@](O)(Cn1cncn1)c1ccc(F)cc1F,219 to 220 °C
4,COc1ccc(CNC(=S)NNC(=O)C(N)=O)cc1,185 to 190 °C
5,CCn1c(=O)oc2ccc(Cl)cc21,75 to 78 °C
6,CCN(CC)CCCNc1ccc(-c2ccnc(Nc3cc(OC)c(OC)c(OC)c3)n2)cn1,67 °C
7,FC(F)(F)c1cccc(-c2nc(-c3ccccn3)no2)c1,116 to 118 °C
8,COC(=O)c1cncn1C1CCCc2ccccc21 (centres undefined),63 °C
9,CCCCCCCCCCCCCCCCCCOc1cc(N(CC(=O)O)CC(=O)O)cc(S(C)=O)c1 (centres undefined),147 to 149 °C
10,Cc1nc(N)c2nc(C)n(NCCCNS(C)(=O)=O)c2c1C,215 to 217 °C
11,CC(C)n1nc(-c2sc(C(=O)NCc3ccccn3)nc2-c2ccccc2F)ccc1=O,190 to 191 °C
12,Cn1cncc1C(O)c1ccc2[nH]c(=O)cc(-c3cccc(Cl)c3)c2c1 (centres undefined),186 °C
13,O=[N+]([O-])c1cn2c(n1)OC[C@@H](OCc1ncc(Br)cn1)C2,> 290 °C
14,O=C1C(CCO)Oc2ccccc2N1Cc1ccc([N+](=O)[O-])cc1 (centres undefined),124 to 127 °C
15,COc1ccc(N)nc1C,98 to 100 °C
16,CC1CN(Cc2ccccc2)Cc2c(C=O)c(-c3ccccc3)n(Cc3ccccc3)c21 (centres undefined),120 to 121 °C
17,NCCN1CCC(Nc2nc3ccccc3n2Cc2ccccn2)C1 (centres undefined),130 °C
18,CN(C)C(=Nc1ccccc1N1CCOCC1)N1CCCCC1,88 to 90 °C
19,COc1cc(-c2nc3ccccc3n2Cc2ccccc2Br)cc(OC)c1OC,152 °C
20,CCCCOc1ccc(COC(=O)C(=O)OCc2ccc(OCCCC)cc2)cc1,114 °C
21,CCOC(=O)c1cc(-n2c(=O)ccn(C)c2=O)ccc1Cl,147 to 148 °C
22,COc1ccc2occ(CCN3CCN(c4cccc5cccnc45)CC3)c2c1,78 °C
23,CS(=O)(=O)C(=C1CN(C(c2ccccc2)c2ccccc2)C1)c1cc(F)ccc1F,176 °C
24,COC(=O)c1cccc2c1C(Cc1ccncc1)(Cc1ccnc(F)c1)c1ccccc1-2 (centres undefined),144 to 146 °C
25,CC(C)(C)OC(=O)N1CCOc2ccccc21,78 to 79 °C

row,SMILES,melting point
1,CC(C)c1ccc2ncn(/C=C/C(=O)O)c(=O)c2c1,242 to 243 °C
2,CN1CCC[C@@H]1Cc1c(-c2ccccc2)[nH]c2ccccc12,132 °C
3,O=C1c2ccccc2C(=O)N1c1n[nH]c2ccc(O)cc12,> 270 °C
4,O=C(O)c1ccc(OCc2ccccc2)c(C23CC4CC(CC(C4)C2)C3)c1,251 to 253 °C
5,Cc1c(C)c2c(c(C)c1O)SC(C)(c1ccccc1)O2 (centres undefined),80 to 81 °C
6,N#Cc1c(Cl)csc1N,230 °C
7,CN(C)CCOC1(O)C=CC2=NC(C(=O)N3CC(CCl)c4c3ccc3ncccc43)=CC2=C1 (centres undefined),209 to 215 °C
8,COC(=O)C1CCCN(C(=O)OCc2ccccc2)N1C(=O)C(Br)CBr (centres undefined),132 to 134 °C
9,O=c1[nH]c2cc(C(F)(F)F)ccc2c(-c2cc(Cl)ccc2O)c1NS(=O)(=O)C(F)(F)F,267 to 270 °C
10,COc1ccnc(C(=O)N[C@H]2COC[C@H](CC3CCCCC3)[C@@H](OCC(C)C)[C@H](C)OC2=O)c1O,89 to 92 °C
11,COCc1cnc2c([N+](=O)[O-])cc(C)cc2c1Cl,107 to 111 °C
12,O=c1c(Cc2ccncc2)c(-c2ccc(Br)cc2)[nH]c2ccccc12,232 to 234 °C
13,Nc1ncc(-c2ccc(F)cc2F)nc1C(=O)Nc1cccnc1,232 to 234 °C
14,Cc1cc(C)nc(NC(=O)NS(=O)(=O)N2CCCC2)n1,180 to 181 °C
15,CSc1nc(C(F)(F)F)c(Br)c(=O)[nH]1,215 to 216 °C
16,CNC(=O)c1cc(C)ccc1NC(=O)c1ccc(O)cc1,250 to 252 °C
17,CCOC(=O)NN(C)C(=O)Nc1ccc(OCc2ccc(Cl)cc2)cc1F,108 °C
18,Cc1nnc(-c2nn(-c3cccc(C(F)(F)F)c3)ccc2=O)n1-c1ccccc1,191 to 192 °C
19,FC(F)(F)c1cc(CNCc2cc3ccccc3nc2N2CCN(CC3CCCCC3)CC2)cc(C(F)(F)F)c1,54 to 55 °C
20,CCCS(=O)(=O)NC(=O)C[C@H]1O[C@H](c2cccc(OC)c2OC)c2cc(Cl)ccc2N(CC(C)(C)CO)C1=O,135 to 137 °C
21,N#Cc1ncn2c1N(C(=O)CN1CCN(C(c3ccccc3)c3ccc(Cl)cc3)CC1)CC=C2c1cccc(C(F)(F)F)c1 (centres undefined),105 to 107 °C
22,N#CC1=C(c2cccs2)Nc2n[nH]cc2C1c1ccccc1[N+](=O)[O-] (centres undefined),165 °C
23,N#Cc1cccc(NC(=O)c2ccc(-n3nc(C(F)(F)F)cc3C(F)(F)F)cc2)c1,195 to 196 °C
24,Cc1cc(=O)oc2c1c(C)nn2CCO,152 to 153 °C
25,CC(C)(C)n1c(=O)c(=O)[nH]c2ccccc21,> 300 °C

row,SMILES,melting point
1,COc1cc(OC)nc(C2(OC(C)=O)OC(=O)c3c(Cl)cccc32)n1 (centres undefined),213 to 215 °C
2,O=C(Cn1cc(-c2ccccc2)cc(NC(=O)OCc2ccccc2)c1=O)NC(Cc1ccccc1)C(=O)C(F)(F)F (centres undefined),147 to 151 °C
3,Cc1nc2cc(C(=O)NC(C)C)c(NC(=O)c3cc(C(F)(F)F)nn3-c3ncccc3Cl)c(Cl)c2n1C,248 to 250 °C
4,CCOC(=O)CC[C@@H](C(=O)OCC)N1C(=O)c2ccc([N+](=O)[O-])cc2C1=O,65.5 to 66.5 °C
5,COC(=O)Cn1c(=O)sc2cc(Br)c(Cl)cc21,209 to 210 °C
6,O=C(NC(O)C(Cl)(Cl)Cl)c1cc([N+](=O)[O-])ccc1O (centres undefined),223 to 225 °C
7,c1ccc2c(c1)CCN(Cc1c[nH]c3ncccc13)C2,190 to 192 °C
8,O=C(CCCCCCOc1ccccc1)c1nnc(COCc2ccccc2)o1,61 to 63 °C
9,Cc1ccc(S(=O)(=O)NC(C)(C)CO)cc1NC(=O)c1cnn2c(C(F)F)cc(-c3ccc(C(F)(F)F)cc3)nc12,214 °C
10,CCC(CC)n1cc(Cl)nc(N2CCc3cc(Cl)cc(Cl)c32)c1=O,168 to 170 °C
11,COc1cc(OC2CCN(S(=O)(=O)CCNC3CC3)CC2)ccc1CC(=O)N1CCN(c2ccccc2C)CC1C(N)=O (centres undefined),69 to 110 °C
12,CCC(=O)c1ccc(NC(C)=O)cc1,169 to 170 °C
13,CC(=O)N1CCC(n2c(=O)[nH]c3ccccc32)CC1,212 to 214 °C
14,CS(=O)(=O)c1ccc(/C(=C(/CO)CCO)c2ccc(Cl)cc2)cc1,159 to 160 °C
15,Cc1nc2c(N)nc3c(c2n1CCOCCCc1cccnc1)CCCC3,140 to 141 °C
16,CCNC(=O)c1c(Cl)cccc1[Si](C)(C)c1ccccc1,89 to 91 °C
17,CCc1cc(=O)c2nc(OC(C)C)c(Cl)cc2[nH]1,231 to 235 °C
18,NS(=O)(=O)c1ccc(S(=O)(=O)NCc2cccs2)s1,146 to 148 °C
19,N#Cc1ccc(C2NCCc3ccccc32)cc1 (racemic),114 to 115 °C
20,Cc1nc2n(c(=O)c1CCCl)CCCN2Cc1ccccc1,114 °C
21,CCCCCCOc1ccc(C(=O)Cl)cc1,90 to 93 °C
22,CCOC(=O)c1cnc(Nc2ccccc2OCC(C)C)[nH]c1=O,175 to 177 °C
23,O=C(NCCCl)Oc1ccccc1,65 to 67 °C
24,COC(=O)CCC(=NO)c1ccccc1,76 to 77 °C
25,CCCSC1NC(c2ccc(Cl)cc2)=NN(CC(F)(F)F)C1=O (centres undefined),99 to 100 °C

row,SMILES,melting point
1,Cn1cc(C2=C(c3ccccc3)C(=O)NC2=O)c2ccccc21,230 to 232 °C
2,"Cc1c(C)c2c(c(C)c1NC(=O)c1ccc(F)cc1)C(c1ccc(C(C)C)cc1)C(C)(C)O2 (single isomer, unassigned; (+))",251 to 253 °C
3,FC(F)(F)c1cccc(-c2ccc3nncn3n2)c1,140 to 143 °C
4,Cc1ccc(S(=O)(=O)OCCc2ccccc2Br)cc1,39 to 39.5 °C
5,COc1cc(Nc2nccc(-c3cncs3)n2)cc(OC)c1OC,171 °C
6,COC(=O)Cn1nnnc1-c1ccc(Cl)cc1,156 to 158 °C
7,COc1cc(-c2nc(-c3ccc(N(C)C)cc3)c(C)[nH]2)ccc1OP(=O)(O)O,226 to 230 °C
8,CN1CCCN(C(=O)Nc2ccccc2Cc2ncc[nH]2)CC1,139 to 143 °C
9,C=CCn1c(=O)c2cccnc2n(-c2cccc([N+](=O)[O-])c2)c1=O,188 to 189 °C
10,CC(C)(C)OC(=O)NCCCCC(=O)N[C@@H](CC(=O)OCc1ccccc1)C(=O)N[C@@H](Cc1ccccc1)C(=O)OCc1ccccc1,120 °C
11,CCCCCCCCCCCc1nnc2n1-c1sc(CC)cc1C(c1ccc(O)cc1)OC2 (centres undefined),96 to 98 °C
12,FC(F)(F)c1ccc(CN2CC3(COc4ccc(-c5ccncc5)cc43)c3ccccc32)o1 (centres undefined),108 to 110 °C
13,CCOP(=O)(OCC)C(CCc1cc(C)nc2c(C#N)c(C)nn12)P(=O)(OCC)OCC,49 to 50 °C
14,N#CCCOc1cccc(OCCC#N)c1,109 to 110 °C
15,Cc1ccc(-c2ccc3c(c2)C=C(C(=O)Nc2ccc(CS(=O)Cc4ccccc4)cc2)CCO3)cc1 (centres undefined),208 to 209 °C
16,CCCNC(=O)c1cc2ccc(OC)cc2n1CCNC(C)=O,127 to 128 °C
17,COc1nc2ccccc2cc1NC(=O)N1CCN(c2cccc(OCC3CC3)c2)CC1,146 to 147 °C
18,CON=C(c1ccccc1OCc1ccc(Cl)cc1Cl)n1ccnc1,122 to 123 °C
19,CC(=O)N(O)Cc1ccc(OCCN(C)c2nc3ccccc3o2)cc1,135 to 136 °C
20,CC(=O)N(CC(=O)N1c2ccccc2N(Cc2ccccc2)C(=O)[C@H]2CCC[C@H]21)Cc1ccccc1 (relative stereo),179 to 181 °C
21,OCc1cnc2ccc(Cl)cc2c1O,> 300 °C
22,CN(CCO)C(=O)Nc1ccc2c(c1Cl)C(c1ccccc1F)=NCC(=O)N2C,218 to 220 °C
23,COCCc1nc2c(N)nc3ccccc3c2n1CC(C)(C)CNC(=O)Nc1ccccc1,125 to 130 °C
24,CN(C)C=Nc1cc(Cc2c(Cl)cccc2Cl)nc(Nc2ccc(C#N)cc2)n1,175 to 180 °C
